Patent publication US8563715B2, “Pyrimidine derivative having cell protecting effect and uses thereof” (Zenyaku Kogyo Kabushikikaisha, priority 2008, dated 2013)

How the values were obtained:
[1] = system: astrocyte/neuron co-culture; experiment: Brain cell damage induced by hydrogen peroxide treatment (LDH assay); assay type: cell-based; conditions: Rattus norvegicus, hydrogen peroxide (250 μM), 24 hours, read-out: 50% inhibition concentration against cell damage in entire co-culture system (EC50 value)
Experimental: (§1) The brain was removed from 1 to 2 day old Wistar rats (Charles River) or Sprague-Dawley (IGS) rats (Charles River), and the cerebral cortex including the hippocampus was excised under ice cooling. After this cerebral cortex was minced, it was digested with papain solution (9 U/ml) containing DNase I (30 U/ml) at 37 degrees Celsius for 15 minutes, dispersing the cells. After further carrying out mechanical dispersing by pipetting, it was passed through a cell strainer with a pore size of 70 μm, and a cell suspension was obtained. Cells derived from 1.4 cerebra were seeded on 150 mm tissue culture dish (Iwaki Glass), and primary culture was carried out at 37 degrees Celsius and 5% CO2 using a D-MEM medium (Invitrogen) containing 10% heat-inactivated fetal calf serum (JRH). One day after the start of the culture, the nonadherent cells were removed, and the primary cultured astrocytes were obtained by continuing the culture for 4 to 5 further days. The primary cultured astrocytes were dispersed by trypsin treating, suspended in cryopreservation solution, and cryopreserved.
(§2) After thawing the cryopreserved primary cultured astrocytes, they were seeded on tissue culture plates (Iwaki Glass), and a confluent astrocyte layer was produced by a further 7 days of secondary culture using a D-MEM medium containing 10% heat-inactivated fetal calf serum. Neurons to be used in the co-culture with the astrocyte layer were obtained from fetal rat cerebrum. Briefly, brains were removed from Wistar rats (Charles River) or Sprague-Dawley (IGS) rats (Charles River) of embryonic age 18.5 days, and the cerebral cortex including the hippocampus was excised under ice cooling. After this cerebral cortex was minced, it was digested in papain solution (9 U/ml) containing DNase I (30 U/ml) at 37 degrees Celsius for 15 minutes, dispersing the cells. After further carrying out mechanical dispersing by pipetting, it was passed through a cell strainer with a pore size of 70 μm, and a cell suspension was obtained. This cell suspension was plated at a density of 1.3×10^5 cells/cm^2 on the astrocyte layer, and a co-culture was carried out using D-MEM/F-12 medium (Invitrogen) containing 10% heat-inactivated fetal calf serum and 5% horse serum (Invitrogen). 2 days after the start of the co-culture, cells were treated for 24 hours with 10 μM cytosine arabinoside in order to suppress the excessive cell proliferation of microglia and the like. 8 to 9 days after the start of the co-culture, cells were used for the test. Additionally, using one portion of the cells, immunofluorescent staining and nuclear staining was carried out with astrocyte recognizing antibodies (anti-GFAP) and neuron recognizing antibodies (anti-MAP2), in order to confirm that the present culture system is a co-culture system of astrocytes and neurons.
(§3) An astrocyte/neuron co-culture cultured on a 96 well plate was used in the test. A predetermined concentration of the test substance and hydrogen peroxide (250 μM) was simultaneously added to the cell culture in each well with continuing cultivation, and analysis was done 24 hours after this treatment. Using an LDH Cytotoxicity Detection Kit (Takara Bio), analysis was carried out in accordance with the included instruction manual, and the damage to the entire co-culture system by the hydrogen peroxide treatment and the protective effect (EC 50 value) of the test substance was evaluated. Further, the cell bodies and the neuronal processes of the neurons were observed by microscope, and the neuroprotective effect was evaluated.

[2] = system: neurons in astrocyte/neuron co-culture; experiment: Brain cell damage induced by hydrogen peroxide treatment (neuroprotective effect, microscope observation); assay type: cell-based; conditions: Rattus norvegicus, hydrogen peroxide (250 μM), 24 hours, read-out: Concentration for complete inhibition of neuronal death
Experimental: as §1, §2, §3

**Q.** With `COc1ccc(CCc2nc(N3CCOCC3)c(N)c(N3CCN(S(=O)(=O)N(C)C)CC3)n2)cc1` [Compound 214, 5-amino-4-(4-dimethylsulfamoylpiperazin-1-yl)-2-[2-(4-methoxyphenyl)ethyl]-6-morpholinopyrimidine] as the molecule, how does the EC50 [1] read?
**A.** The EC50 was 2.26 µM.

**Q.** And the EC100 [2]?
**A.** The EC100 was 10 µM.

**Q.** Which EC50 [1] does the source give for `Cc1ccc(N2CCN(c3nc(N4CCOCC4)c(F)c(N4CCN(C(=O)OC(C)(C)C)CC4)n3)CC2)cc1` [Compound 153, 4-[4-(tert-butoxycarbonyl)piperazin-1-yl]-5-fluoro-2-[4-(4-methylphenyl)piperazin-1-yl]-6-morpholinopyrimidine] here?
**A.** Its EC50 is 0.45 µM.

**Q.** What about the EC100 [2] of the same molecule?
**A.** Its EC100 is 3 µM.

**Q.** With `c1ccc(N2CCN(c3nc(N4CCNCC4)cc(N4CCOCC4)n3)CC2)cc1` [Compound 52, 4-morpholino-2-(4-phenylpiperazin-1-yl)-6-(piperazin-1-yl)pyrimidine] as the molecule, how does the EC50 [1] read?
**A.** The EC50 was 3.16 µM.

**Q.** And the EC100 [2]?
**A.** The EC100 was 30 µM.

**Q.** With `CN1CCN(c2nc(N3CCN(c4ccccc4Cl)CC3)nc(N3CCOCC3)c2F)CC1` [Compound 187, 2-[4-(2-chlorophenyl)piperazin-1-yl]-5-fluoro-6-(4-methylpiperazin-1-yl)-4-morpholino pyrimidine] as the molecule, how does the EC50 [1] read?
**A.** Its EC50 is 0.33 µM.

**Q.** What about the EC100 [2] of the same molecule?
**A.** The EC100 was 1 µM.

**Q.** For `Cc1ccc(N2CCN(c3nc(NCCN4CCNCC4)nc(N4CCOCC4)c3F)CC2)cc1` [Compound 158, 5-fluoro-4-[4-(4-methylphenyl)piperazin-1-yl]-6-morpholino-2-[2-(piperazin-1-yl)-ethylamino]pyrimidine], which EC50 [1] is on record?
**A.** The EC50 was 0.16 µM.

**Q.** And the EC100 [2]?
**A.** The EC100 was 1 µM.

**Q.** With `Fc1ccccc1N1CCN(c2nc(N3CCOCC3)c(F)c(N3CCN(c4ccccc4F)CC3)n2)CC1` [Compound 126, 2,4-bis[4-(2-fluorophenyl)piperazin-1-yl]-5-fluoro-6-morpholinopyrimidine] as the molecule, how does the EC50 [1] read?
**A.** Its EC50 is 0.8 µM.

**Q.** And the melting point?
**A.** The melting point was 131 to 132 °C.

**Q.** With `CCOc1ccccc1N1CCN(c2nc(N3CCOCC3)c(F)c(N3CCN(C)CC3)n2)CC1` [Compound 190, 2-[4-(2-ethoxyphenyl)piperazin-1-yl]-5-fluoro-4-(4-methylpiperazin-1-yl)-6-morpholinopyrimidine] as the molecule, how does the EC50 [1] read?
**A.** The EC50 was 0.34 µM.

**Q.** And the EC100 [2]?
**A.** The EC100 was 3 µM.

**Q.** Which EC50 [1] does the source give for `Cc1ccccc1N1CCN(c2nc(N3CCOCC3)cc(N3CCN(c4ccccc4)CC3)n2)CC1` [Compound 61, 2-[4-(2-methylphenyl)piperazin-1-yl]-6-morpholino-4-(4-phenylpiperazin-1-yl)pyrimidine] here?
**A.** Its EC50 is 6.45 µM.

**Q.** What about the EC100 [2] of the same molecule?
**A.** The EC100 was 10 µM.

**Q.** Which EC50 [1] does the source give for `Fc1c(N2CCOCC2)nc(N2CCN(C3CCCCC3)CC2)nc1N1CCOCC1` [Compound 123, 2-(4-cyclohexylpiperazin-1-yl)-5-fluoro-4,6-dimorpholinopyrimidine] here?
**A.** Its EC50 is 2.98 µM.

**Q.** And the EC100 [2]?
**A.** Its EC100 is 10 µM.

**Q.** With `COc1ccc(/C=C/c2nc(N3CCOCC3)c(N)c(N3CCN(S(=O)(=O)N(C)C)CC3)n2)cc1` [Compound 215, 5-amino-4-(4-dimethylsulfamoylpiperazin-1-yl)-2-[2-(4-methoxyphenyl)vinyl]-6-morpholinopyrimidine] as the molecule, how does the EC50 [1] read?
**A.** The EC50 was 1.61 µM.

**Q.** What about the EC100 [2] of the same molecule?
**A.** The EC100 was 10 µM.

**Q.** For `CN1CCN(c2nc(N3CCCc4ccccc43)nc(N3CCOCC3)c2F)CC1` [Compound 167, 5-fluoro-4-(4-methylpiperazin-1-yl)-6-morpholino-2-(1,2,3,4-tetrahydro-1H-quinolin-1-yl)pyrimidine], which EC50 [1] is on record?
**A.** Its EC50 is 0.28 µM.

**Q.** Which EC50 [1] does the source give for `COc1ccc(/C=C/c2nc(N(C)C)c(N)c(N3CCNCC3)n2)cc1` [Compound 210, 5-amino-4-dimethylamino-2-[2-(4-methoxyphenyl)vinyl]-6-(1-piperazinyl)pyrimidine] here?
**A.** The EC50 was 4.07 µM.

**Q.** What about the EC100 [2] of the same molecule?
**A.** Its EC100 is 10 µM.

**Q.** With `Cc1ccc(N2CCN(c3nc(N4CCOCC4)nc(N4CCN(C)CC4)c3F)CC2)cc1` [Compound 155, 5-fluoro-4-[4-(4-methylphenyl)piperazin-1-yl]-6-(4-methylpiperazin-1-yl)-2-morpholinopyrimidine] as the molecule, how does the EC50 [1] read?
**A.** The EC50 was 0.32 µM.

**Q.** And the EC100 [2]?
**A.** Its EC100 is 3 µM.

**Q.** For `c1ccc2c(c1)CCN(c1nc(N3CCOCC3)cc(N3CCOCC3)n1)C2` [Compound 6, 4,6-dimorpholino-2-(1,2,3,4-tetrahydro-2H-isoquinolin-2-yl)pyrimidine], which EC50 [1] is on record?
**A.** Its EC50 is 8.24 µM.

**Q.** Which EC50 [1] does the source give for `Cc1ccc(N2CCN(c3nc(N4CCOCC4)nc(NCCN4CCOCC4)c3F)CC2)cc1` [Compound 160, 5-fluoro-4-[4-(4-methylphenyl)piperazin-1-yl]-2-morpholino-6-(2-morpholinoethylamino)pyrimidine] here?
**A.** The EC50 was 1.08 µM.

**Q.** And the EC100 [2]?
**A.** Its EC100 is 3 µM.

**Q.** With `N#CC1(c2ccccc2)CCN(c2nc(N3CCOCC3)nc(N3CCOCC3)c2F)CC1` [Compound 115, 4-(4-cyano-4-phenylpiperidin-1-yl)-5-fluoro-2,6-dimorpholinopyrimidine] as the molecule, how does the EC50 [1] read?
**A.** Its EC50 is 0.63 µM.

**Q.** Which results are given for `CC(C)(C)OC(=O)N1CCN(c2nc(N3CCCc4ccccc43)nc(N3CCOCC3)c2F)CC1` [Compound 168, 4-[4-(tert-butoxycarbonyl)piperazin-1-yl]-5-fluoro-6-morpholino-2-(1,2,3,4-tetrahydro-1H-quinolin-1-yl)pyrimidine]?
**A.** EC50 [1]: 0.31 µM; EC100 [2]: 3 µM

**Q.** With `CN(C)c1nc(N2CCC(Cc3ccccc3)CC2)nc(N2CCOCC2)c1N` [Compound 68, 5-amino-2-(4-benzylpiperidin-1-yl)-4-dimethylamino-6-morpholinopyrimidine] as the molecule, how does the EC50 [1] read?
**A.** The EC50 was 0.86 µM.

**Q.** With `CN1CCN(c2nc(N3CCOCC3)nc(N3CCN(c4ccccc4)CC3)c2F)CC1` [Compound 171, 5-fluoro-4-(4-methylpiperazin-1-yl)-2-morpholino-6-(4-phenylpiperazin-1-yl)pyrimidine] as the molecule, how does the EC50 [1] read?
**A.** The EC50 was 0.49 µM.

**Q.** Which EC50 [1] does the source give for `Nc1c(N2CCOCC2)nc(N2CCOCC2)nc1N1CCC(Cc2ccccc2)CC1` [Compound 67, 5-amino-4-(4-benzylpiperidin-1-yl)-2,6-dimorpholinopyrimidine] here?
**A.** Its EC50 is 1.78 µM.

**Q.** For `CCOC(=O)C1CSCCN1c1nc(/C=C/c2ccc(OC)cc2)nc(N2CCOCC2)c1N` (stereo not shown) [Compound 209, 5-amino-4-(3-ethoxycarbonylthiomorpholin-4-yl)-2-[2-(4-methoxyphenyl)vinyl]-6-morpholinopyrimidine], which EC50 [1] is on record?
**A.** Its EC50 is 1.48 µM.

**Q.** And the EC100 [2]?
**A.** Its EC100 is 10 µM.

**Q.** For `Fc1ccccc1N1CCN(c2nc(N3CCN(c4ccccc4)CC3)nc(N3CCOCC3)c2F)CC1` [Compound 125, 5-fluoro-4-[4-(2-fluorophenyl)piperazin-1-yl]-6-morpholino-2-(4-phenylpiperazin-1-yl)pyrimidine], which EC50 [1] is on record?
**A.** Its EC50 is 0.56 µM.

**Q.** What about the melting point of the same molecule?
**A.** The melting point was 140 to 141 °C.

**Q.** Which EC50 [1] does the source give for `CCN(CC)c1ccc(CCCCc2nc(N3CCOCC3)c(N)c(N3CCOCC3)n2)cc1` [Compound 145, 5-amino-2-[4-(4-diethylaminophenyl)butyl]-4,6-dimorpholinopyrimidine] here?
**A.** The EC50 was 0.67 µM.

**Q.** What does the source list for `CN(C)c1cc(N2CCOCC2)nc(N2CCN(c3ccccc3)CC2)n1` [Compound 2, 4-dimethylamino-6-morpholino-2-(4-phenylpiperazin-1-yl)pyrimidine]?
**A.** EC50 [1]: 18.4 µM; melting point: 149 °C

**Q.** Which results are given for `Cc1cccc(N2CCN(c3nc(N4CCN(Cc5ccncc5)CC4)nc(N4CCOCC4)c3F)CC2)c1C` [Compound 191, 5-fluoro-4-morpholino-2-[4-(4-pyridinylmethyl)piperazin-1-yl]-6-[4-(2,3-xylyl)piperazin-1-yl]-pyrimidine]?
**A.** EC50 [1]: 0.73 µM; melting point: 127 to 128 °C

**Q.** For `CC1CCc2cc(F)ccc2N1c1nc(N2CCOCC2)c(N)c(N2CCOCC2)n1` (stereo not shown) [Compound 71, 5-amino-2-(6-fluoro-2-methyl-1,2,3,4-tetrahydroquinolin-1-yl)-4,6-dimorpholinopyrimidine], which EC50 [1] is on record?
**A.** Its EC50 is 1.96 µM.

**Q.** For `CN(C)c1nc(N2CCOCC2)c(F)c(N2CCN(c3ccc(Cl)cc3)CC2)n1` [Compound 113, 4-[4-(4-chlorophenyl)piperazin-1-yl]-2-dimethylamino-5-fluoro-6-morpholinopyrimidine], which melting point is on record?
**A.** Its melting point is 152 °C.

**Q.** Which melting point does the source give for `Cc1ccccc1N1CCN(c2cc(N3CCOCC3)nc(N3CCN(c4ccccc4C)CC3)n2)CC1` [Compound 62, 2,4-bis[4-(2-methylphenyl)piperazin-1-yl]-6-morpholinopyrimidine] here?
**A.** Its melting point is 98 to 99 °C.
